Patent publication US4218562A, “Antibiotic derivatives of XK-62-2” (Abbott Laboratories, priority 1978, dated 1980)
Values after ≈ are worked out from the molar mass of the structure shown. Read-outs that look alike come from different tables or passages of the source.

Experiments:
[1] = system: Proteus vulgaris ATCC 6897; assay: Agar dilution MIC, pH 8.0: Proteus vulgaris ATCC 6897; format: cell-based
[2] = system: Shigella seanei ATCC 9250; assay: microbe, parasite or virus in culture; format: cell-based
[3] = system: Salmanella typhosa ATCC 9992; assay: microbe, parasite or virus in culture; format: cell-based
[4] = system: Krobsiella pneumoniae ATCC 10081; assay: Agar dilution MIC, pH 8.0: Krobsiella pneumoniae ATCC 10081; format: cell-based
[5] = system: Escherichia coli ATCC 26; assay: Agar dilution MIC, pH 8.0: Escherichia coli ATCC 26; format: cell-based
[6] = system: Bacillus subtillus ATCC 6688; assay: Agar dilution MIC, pH 7.2: Bacillus subtillus ATCC 6688; format: cell-based
[7] = system: Sarcina lucca ATCC 9341; assay: Agar dilution MIC, pH 7.2: Sarcina lucca ATCC 9341; format: cell-based; details: ATCC9341, pH 7.2, read-out: Minimum Inhibitory Concentration
[8] = system: Pseudomonas aeruginosa BMH No. 1; assay: Agar dilution MIC, pH 7.2: Pseudomonas aeruginosa BMH No. 1; format: cell-based
[9] = system: Proteus marganii KY 4298; assay: Agar dilution MIC, pH 7.2: Proteus marganii KY 4298; format: cell-based
[10] = Solubility; format: physicochemical
[11] = system: Pseudomanas aeruginosa BMH 1; assay: Agar dilution MIC, pH 8.0: Pseudomonas aeruginosa BMH 1; format: cell-based
[12] = system: Staphylococcus aureus ATCC 6538P; assay: Agar dilution MIC, pH 8.0: Staphylococcus aureus ATCC 6538P; format: cell-based; details: ATCC6538P
[13] = system: Bacillus subtilis No. 10707; assay: Agar dilution MIC, pH 8.0: Bacillus subtilis No. 10707; format: cell-based
[14] = system: Escherichia coli KY 8327; assay: Agar dilution MIC, pH 8.0: Escherichia coli KY 8327; format: cell-based; details: for MIC: Escherichia coli, KY8327, agar-dilution method, pH 8.0, strain produces gentamicin adenyltransferase, read-out: Minimum Inhibitory Concentration; for anti-bacterial activity: comparison of MIC in Table 1, E. coli KY 8327
Text: (§1) The former bacterium inactivates kanamycins and gentamicins by adenylation, and the latter inactivates gentamicins by acetylation.

[15] = system: Escherichia coli KY 8348; assay: Agar dilution MIC, pH 8.0: Escherichia coli KY 8348; format: cell-based; details: for MIC: Escherichia coli, KY8348, agar-dilution method, pH 8.0, strain produces gentamicin acetyltransferase Type I, read-out: Minimum Inhibitory Concentration; for anti-bacterial activity: comparison of MIC in Table 1, E. coli KY 8348
Text: as §1

[16] = system: strains of Escherichia coli having an R factor; assay: Anti-bacterial activity against Escherichia coli having an R factor; format: cell-based; details: E. coli having an R factor which shows resistance to known aminoglycoside antibiotics
[17] = system: staphylococcus aureus 209P; assay: Agar dilution MIC, pH 7.2: Staphylococcus aureus 209P; format: cell-based; details: pH 7.2, read-out: Minimum Inhibitory Concentration
[18] = system: staphylococcus aureus Smith; assay: Agar dilution MIC, pH 7.2: Staphylococcus aureus Smith; format: cell-based; details: pH 7.2, read-out: Minimum Inhibitory Concentration
[19] = system: Escherichia coli T-2; assay: Agar dilution MIC, pH 7.2: Escherichia coli T-2; format: cell-based; details: T2, pH 7.2, read-out: Minimum Inhibitory Concentration
[20] = system: Escherichia coli T-5; assay: Agar dilution MIC, pH 7.2: Escherichia coli T-5; format: cell-based; details: T5, pH 7.2, read-out: Minimum Inhibitory Concentration
[21] = system: Escherichia coli KY 8321; assay: Agar dilution MIC, pH 7.2: Escherichia coli KY 8321; format: cell-based; details: KY8321, pH 7.2, read-out: Minimum Inhibitory Concentration
[22] = system: Pseudomonas aeruginosa KY 8510; assay: Agar dilution MIC, pH 7.2: Pseudomonas aeruginosa KY 8510; format: cell-based; details: KY8510, pH 7.2, read-out: Minimum Inhibitory Concentration
[23] = system: Pseudomonas aeruginosa KY 8511; assay: Agar dilution MIC, pH 7.2: Pseudomonas aeruginosa KY 8511; format: cell-based; details: KY8511, pH 7.2, read-out: Minimum Inhibitory Concentration
[24] = system: Pseudomonas aeruginosa KY 8512; assay: Agar dilution MIC, pH 7.2: Pseudomonas aeruginosa KY 8512; format: cell-based; details: KY8512, pH 7.2, read-out: Minimum Inhibitory Concentration
Text: ^7 produces neamycinkanamycin phosphotransferase Type

[25] = system: Pseudomonas aeruginosa KY 8516; assay: Agar dilution MIC, pH 7.2: Pseudomonas aeruginosa KY 8516; format: cell-based; details: KY8516, pH 7.2, read-out: Minimum Inhibitory Concentration
[26] = system: Klebsiella pneumoniae No. 8045; assay: Agar dilution MIC, pH 7.2: Klebsiella pneumoniae No. 8045; format: cell-based; details: NO.8045, pH 7.2, read-out: Minimum Inhibitory Concentration
[27] = system: Proteus Mirabilis 1287; assay: Agar dilution MIC, pH 7.2: Proteus Mirabilis 1287; format: cell-based; details: pH 7.2, read-out: Minimum Inhibitory Concentration
[28] = system: Proteus vulgaris 6897; assay: Agar dilution MIC, pH 7.2: Proteus vulgaris 6897; format: cell-based; details: Proteus vulgaris, 6897, pH 7.2, read-out: Minimum Inhibitory Concentration
[29] = system: various bacteria having a resistance to at least one of gentamicin antibiotics and XK-62-2; assay: Antibacterial activity against resistant bacteria (summary of Table 2); format: cell-based; details: bacteria producing gentamicin adenyltransferase and/or gentamicin acetyltransferase Type I and Type II; from Table 2
[30] = ATCC6897, agar-dilution method, pH 8.0, read-out: Minimum Inhibitory Concentration
[31] = ATCC9250, agar-dilution method, pH 8.0, read-out: Minimum Inhibitory Concentration
[32] = agar-dilution method, pH 8.0, read-out: Minimum Inhibitory Concentration
[33] = ATCC26, agar-dilution method, pH 8.0, read-out: Minimum Inhibitory Concentration
[34] = ATCC6688, agar dilution method, pH 7.2, read-out: Minimum Inhibitory Concentration
[35] = BMHNO.1, agar dilution method, pH 7.2, read-out: Minimum Inhibitory Concentration
[36] = BMH1, agar-dilution method, pH 8.0, read-out: Minimum Inhibitory Concentration
[37] = NO.10707, agar-dilution method, pH 8.0, read-out: Minimum Inhibitory Concentration
[38] = pH 8, read-out: Minimum Inhibitory Concentration

CNC[C@@H]1CC[C@@H](N)[C@@H](O[C@H]2[C@H](O)[C@@H](O[C@H]3OC[C@](C)(O)[C@H](NC)[C@H]3O)[C@H](N)C[C@@H]2N)O1 [XK-62-2]
MIC [1, 30]: 0.033 µg/mL (≈ 0.0712 µM)
MIC [2, 31]: 0.033 µg/mL (≈ 0.0712 µM)
MIC [3, 32]: 0.008 µg/mL (≈ 0.0173 µM)
MIC [4, 32]: 0.004 µg/mL (≈ 0.00863 µM)
MIC [5, 33]: 0.016 µg/mL (≈ 0.0345 µM)
MIC [6, 34]: < 0.05 µg/mL
MIC [7]: 0.4 µg/mL (≈ 0.863 µM)
MIC [8, 35]: 0.78 µg/mL (≈ 1.68 µM)
MIC ([9]; agar dilution method, pH 7.2, read-out: Minimum Inhibitory Concentration): 0.4 µg/mL (≈ 0.863 µM)
solubility ([10]; in chloroform, benzene, ethyl acetate and n-hexane): insoluble
solubility ([10]; in ethanol and acetone): slightly soluble
solubility ([10]; in water and methanol): well soluble

CNC[C@@H]1CC[C@@H](NC(=O)[C@@H](O)CCN)[C@@H](O[C@H]2[C@H](O)[C@@H](O[C@H]3OC[C@](C)(O)[C@H](NC)[C@H]3O)[C@H](N)C[C@@H]2NC(=O)[C@@H](O)CCN)O1 [IV, 3-N-2'-N-bis[L-(-)-α-hydroxy-γ-aminobutyryl]XK-62-2]
MIC [11, 36]: 8.34 µg/mL (≈ 12.5 µM)
MIC [12, 32]: 0.13 µg/mL (≈ 0.195 µM)
MIC [13, 37]: 0.016 µg/mL (≈ 0.024 µM)
MIC [1, 30]: 0.521 µg/mL (≈ 0.783 µM)
MIC [2, 31]: 0.26 µg/mL (≈ 0.391 µM)
MIC [3, 32]: 0.13 µg/mL (≈ 0.195 µM)
MIC [4, 32]: 0.065 µg/mL (≈ 0.0976 µM)
MIC [5, 33]: 0.13 µg/mL (≈ 0.195 µM)
MIC [14]: 0.26 µg/mL (≈ 0.391 µM)
anti-bacterial activity [14]: strong anti-bacterial activity
MIC [15]: 0.13 µg/mL (≈ 0.195 µM)
anti-bacterial activity [15]: strong anti-bacterial activity
anti-bacterial activity [16]: strong anti-bacterial activity

CNC[C@@H]1CC[C@@H](NC(=O)[C@@H](O)CCN)[C@@H](O[C@H]2[C@H](O)[C@@H](O[C@H]3OC[C@](C)(O)[C@H](NC)[C@H]3O)[C@H](N)C[C@@H]2N)O1 [Compound I, 2'-N-[L-(-)-α-hydroxy-γ-aminobutyryl]XK-62-2]
MIC [11, 36]: 25 µg/mL (≈ 44.3 µM)
MIC [12, 32]: 0.05 µg/mL (≈ 0.0885 µM)
MIC [13, 37]: 0.05 µg/mL (≈ 0.0885 µM)
MIC [1, 30]: 0.39 µg/mL (≈ 0.691 µM)
MIC [2, 31]: 0.39 µg/mL (≈ 0.691 µM)
MIC [3, 32]: 0.2 µg/mL (≈ 0.354 µM)
MIC [4, 32]: 0.1 µg/mL (≈ 0.177 µM)
MIC [5, 33]: 0.39 µg/mL (≈ 0.691 µM)
MIC [14]: 3.1 µg/mL (≈ 5.49 µM)
anti-bacterial activity [14]: strong anti-bacterial activity
MIC [15]: 0.05 µg/mL (≈ 0.0885 µM)
anti-bacterial activity [15]: strong anti-bacterial activity
anti-bacterial activity [16]: strong anti-bacterial activity

CNC[C@@H]1CC[C@@H](NC(=O)[C@@H](O)CCN)[C@@H](O[C@H]2[C@H](O)[C@@H](O[C@H]3OC[C@](C)(O)[C@H](NC)[C@H]3O)[C@H](NC(=O)[C@@H](O)CCN)C[C@@H]2N)O1 [III, 1-N-2'-N-bis-[L-(-)-α-hydroxy-γ-aminobutyryl]XK -62-2]
MIC [11, 36]: 8.34 µg/mL (≈ 12.5 µM)
MIC [12, 32]: 0.065 µg/mL (≈ 0.0976 µM)
MIC [13, 37]: 0.008 µg/mL (≈ 0.012 µM)
MIC [1, 30]: 0.521 µg/mL (≈ 0.783 µM)
MIC [2, 31]: 0.26 µg/mL (≈ 0.391 µM)
MIC [4, 32]: 0.065 µg/mL (≈ 0.0976 µM)
MIC [5, 33]: 0.065 µg/mL (≈ 0.0976 µM)
MIC [14]: 0.065 µg/mL (≈ 0.0976 µM)
anti-bacterial activity [14]: strong anti-bacterial activity
MIC [15]: 0.065 µg/mL (≈ 0.0976 µM)
anti-bacterial activity [15]: strong anti-bacterial activity
anti-bacterial activity [16]: strong anti-bacterial activity

NC[C@H]1O[C@H](O[C@H]2[C@H](O)[C@@H](O[C@H]3O[C@H](CO)[C@@H](O)[C@H](N)[C@H]3O)[C@H](N)C[C@@H]2N)[C@H](O)[C@@H](O)[C@@H]1O [Kanamycin A, kanamycin A]
MIC ([11]; BMH1, pH 8, read-out: Minimum Inhibitory Concentration): 5.2 µg/mL (≈ 10.7 µM)
MIC [12, 38]: 0.021 µg/mL (≈ 0.0433 µM)
MIC ([13]; NO.10707, pH 8, read-out: Minimum Inhibitory Concentration): 0.021 µg/mL (≈ 0.0433 µM)
MIC ([1]; ATCC6897, pH 8, read-out: Minimum Inhibitory Concentration): 0.16 µg/mL (≈ 0.33 µM)
MIC ([2]; ATCC9250, pH 8, read-out: Minimum Inhibitory Concentration): 0.16 µg/mL (≈ 0.33 µM)
MIC [3, 38]: 0.088 µg/mL (≈ 0.182 µM)
MIC [4, 38]: 0.042 µg/mL (≈ 0.0867 µM)
MIC ([5]; ATCC26, pH 8, read-out: Minimum Inhibitory Concentration): 0.16 µg/mL (≈ 0.33 µM)
MIC [17]: 0.2 µg/mL (≈ 0.413 µM)
MIC [18]: 0.2 µg/mL (≈ 0.413 µM)
MIC ([6]; ATCC6688, pH 7.2, read-out: Minimum Inhibitory Concentration): 0.2 µg/mL (≈ 0.413 µM)
MIC [7]: 6.25 µg/mL (≈ 12.9 µM)
MIC [19]: 1.56 µg/mL (≈ 3.22 µM)
MIC [20]: 1.56 µg/mL (≈ 3.22 µM)
MIC [21]: 100 µg/mL (≈ 206 µM)
MIC ([8]; BMHNO.1, pH 7.2, read-out: Minimum Inhibitory Concentration): 12.5 µg/mL (≈ 25.8 µM)
MIC [22]: 100 µg/mL (≈ 206 µM)
MIC [23]: 100 µg/mL (≈ 206 µM)
MIC [24]: 12.5 µg/mL (≈ 25.8 µM)
MIC [25]: > 100 µg/mL
MIC [26]: 0.4 µg/mL (≈ 0.826 µM)
MIC [27]: 6.25 µg/mL (≈ 12.9 µM)
MIC [28]: 3.12 µg/mL (≈ 6.44 µM)
MIC ([9]; pH 7.2, read-out: Minimum Inhibitory Concentration): 1.56 µg/mL (≈ 3.22 µM)

CNC[C@@H]1CC[C@@H](N)[C@@H](O[C@H]2[C@H](O)[C@@H](O[C@H]3OC[C@](C)(O)[C@H](NC)[C@H]3O)[C@H](NC(=O)[C@@H](O)CCN)C[C@@H]2N)O1 [Compound II, 1-N-[L-(-)-α-hydroxy-γ-aminobutyryl]XK-62-2]
MIC [12, 32]: 0.016 µg/mL (≈ 0.0283 µM)
MIC [1, 30]: 0.065 µg/mL (≈ 0.115 µM)
MIC [4, 32]: 0.008 µg/mL (≈ 0.0142 µM)
MIC [14]: 0.016 µg/mL (≈ 0.0283 µM)
anti-bacterial activity [14]: strong anti-bacterial activity
anti-bacterial activity [15]: strong anti-bacterial activity
MIC [6, 34]: 0.1 µg/mL (≈ 0.177 µM)
MIC [7]: 0.4 µg/mL (≈ 0.708 µM)
MIC [8, 35]: 1.56 µg/mL (≈ 2.76 µM)
anti-bacterial activity [16]: strong anti-bacterial activity
antibacterial activity [29]: very strong antibacterial activity
